In patent US12344610B2, “APOL1 inhibitors and methods of use” (Maze Therapeutics, Inc., priority 2022, dated 2025) one finds EC50 data, which are given here for seven compounds.

Molecules are shown by their SMILES. Like-named read-outs stand apart in the source and are kept apart here.

Common to all, as to type: cell-based
Assay [1] concerns HEK293 clonal cell line overexpressing APOL1 G1. Kind of assay: APOL1 G1 HEK293 cell rescue assay (Example B3). The conditions noted are these: geometric mean of at least 2 runs, † = single run, ¥ = concentration at 50% rescue estimated (no sigmoidal curve). Put shortly:
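HEK293 clonal line overexpressing APOL1 G1; EC50 is half-maximal reversal of APOL1-induced cell death. Values are the geometric mean of ≥2 runs on separate days, each run the average of duplicate wells. Where no sigmoidal curve could be fitted, the concentration giving 50% rescue was estimated.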

The test system of assay [2] is Trypanosoma brucei Lister 427 VSG221 with APOL1 G1 recombinant protein. The assay is described as follows: APOL1 G1 trypanosome cell rescue assay (Example B5). To be noted: geometric mean of at least 2 assay runs, † = single assay run. An outline of the steps: (§1)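 Recombinant mature APOL1 (residues 28-398, His-tag removed, E. coli-expressed, refolded from inclusion bodies, DDM buffer) at […] added with 250 trypanosomes/well in modified HMI-9 media. Duplicate 11-point 2-fold compound series, 0.4% DMSO; 20 h at 37° C, 5% CO2, then CellTiter-Glo luminescence for viability.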

Assay [3] concerns Trypanosoma brucei Lister 427 VSG221 with APOL1 G2 recombinant protein. The assay is described as follows: APOL1 G2 trypanosome cell rescue assay (Example B5). The conditions noted are these: geometric mean of at least 2 assay runs, † = single assay run. Put shortly: as §1
Setting [4] is: Homo sapiens, HEK293, HEK293 clonal line overexpressing APOL1 G1.
Setting [5] is: Trypanosoma brucei, 20 h, read-out: APOL1 G1 Trypanosome Rescue EC50, Trypanosoma brucei Lister 427 VSG221 with APOL1 G1 recombinant protein, 20 hours, CellTiter-Glo.
Setting [6] is: Trypanosoma brucei, 20 h, read-out: APOL1 G2 Trypanosome Rescue EC50, Trypanosoma brucei Lister 427 VSG221 with APOL1 G2 recombinant protein, 20 hours, CellTiter-Glo.
Where [7] appears, read: HEK293 clonal line overexpressing APOL1 G1.
Where [8] appears, read: read-out: APOL1 G1 Trypanosome Rescue EC50, Trypanosoma brucei Lister 427 VSG221 with APOL1 G1 recombinant protein, 20 hours, CellTiter-Glo.
Setting [9] is: read-out: APOL1 G2 Trypanosome Rescue EC50, Trypanosoma brucei Lister 427 VSG221 with APOL1 G2 recombinant protein, 20 hours, CellTiter-Glo.

Broadly, the EC50 is the concentration that produces a half-maximal response.

With `CC(C)N1C(=O)CCc2cc(OCCN3CCC4(CC3)C(=O)Nc3ccc(Cl)cc34)ccc21` [Compound 97, 5-chloro-1′-(2-{[2-oxo-1-(propan-2-yl)-1,2,3,4-tetrahydroquinolin-6-yl]oxy}ethyl)-1,2-dihydrospiro[indole-3,4′-piperidin]-2-one], the EC50 was 0.143 µM in assay [1] (setting [4]), 0.0984 µM in assay [2] (setting [5]) and 0.0406 µM in assay [3] (setting [6]).

For the compound `CS(=O)(=O)N(CCO)c1ccc(OCCN2CCC3(CC2)C(=O)Nc2ccc(Cl)cc23)cc1` [Compound 98, N-[4-(2-{5-chloro-2-oxo-1,2-dihydrospiro[indole-3,4′-piperidin]-1′-yl}ethoxy)phenyl]-N-(2-hydroxyethyl)methanesulfonamide], the EC50 in assay [1] (setting [4]) was 0.183 µM; in assay [2] (setting [5]), 0.259 µM; in assay [3] (setting [6]), 0.0722 µM.

On to `O=C1CCc2cc(OCCN3CCC4(CC3)C(=O)Nc3ccc(Cl)cc34)cnc2N1[C@H]1C[C@H](O)C1` [Compound 267, 5-chloro-1′-[2-({7-oxo-8-[(trans)-3-hydroxycyclobutyl]-5,6,7,8-tetrahydro-1,8-naphthyridin-3-yl}oxy)ethyl]-1,2-dihydrospiro[indole-3,4′-piperidin]-2-one], for which the EC50 was 0.137 µM in assay [1] (setting [4]), 0.115 µM in assay [2] (setting [5]) and 0.0337 µM in assay [3] (setting [6]).

For `CS(=O)(=O)C1(c2ccc(OCCN3CCC4(CC3)C(=O)Nc3ccc(Cl)cc34)cc2)CC(O)C1` (stereo not drawn) [Compound 269, 5-chloro-1′-(2-{4-[(cis) or (trans)-3-hydroxy-1-methanesulfonylcyclobutyl]phenoxy}ethyl)-1,2-dihydrospiro[indole-3,4′-piperidin]-2-one], the half-maximal effective concentration (EC50) was 0.325 µM in assay [1] (setting [7]), 0.277 µM in assay [2] (setting [8]) and 0.0797 µM in assay [3] (setting [9]).

Regarding `CS(=O)(=O)C1(c2ccc(OCCN3CCC4(CC3)C(=O)Nc3ccc(Cl)cc34)cc2)CC(O)C1` (stereo not drawn) [Compound 270, 5-chloro-1′-(2-{4-[(trans) or (cis)-3-hydroxy-1-methanesulfonylcyclobutyl]phenoxy}ethyl)-1,2-dihydrospiro[indole-3,4′-piperidin]-2-one], the EC50 was 0.0607 µM in assay [1] (setting [7]), 0.0822 µM in assay [2] (setting [8]) and 0.0253 µM in assay [3] (setting [9]).

In the case of `C[C@]1(O)C[C@@H](n2c(=O)cnc3cc(OCCN4CCC5(CC4)C(=O)Nc4ccc(Cl)cc45)cnc32)C1` [Compound 358, 5-chloro-1′-[2-({3-oxo-4-[(cis)-3-hydroxy-3-methylcyclobutyl]-3H,4H-pyrido[2,3-b]pyrazin-7-yl}oxy)ethyl]-1,2-dihydrospiro[indole-3,4′-piperidin]-2-one], the EC50 in assay [1] (setting [4]) was 0.111 µM; in assay [2] (setting [5]), 0.0752 µM; in assay [3] (setting [6]), 0.0313 µM.

With `CC1(O)CN(c2ncc(OCCN3CCC4(CC3)C(=O)Nc3ccc(C(F)F)cc34)cn2)C1` [Compound 395, 5-(difluoromethyl)-1′-(2-{[2-(3-hydroxy-3-methylazetidin-1-yl)pyrimidin-5-yl]oxy}ethyl)-1,2-dihydrospiro[indole-3,4′-piperidin]-2-one], the concentration giving a half-maximal response (EC50) in assay [1] (setting [4]) was 0.157 µM; in assay [2] (setting [5]), 0.312 µM; in assay [3] (setting [6]), 0.106 µM.
